Measured values as given in patent publication US20240060146A1, “CHEMICAL SUBSTANCE EVALUATION SYSTEM USING MULTICOLOR LIGHT-EMITTING CELLS” (TOHOKU UNIVERSITY, priority 2020, published 2024).

Experiments:
Format in all cases: cell-based
2H4 cells [1] = test: IL-2 Luc LTT: evaluation of chemical substance in 2H4 cells; settings: for IL-2 Luc LTT: 1 h chemical, then 25 nM PMA and 1 μM ionomycin 24 h, class from Min % suppression (nIL2LA) and Min Inh-GAPLA
Procedure: (§1) 2H4 cells were established from Jurkat cells according to the method described in PTL 1. First, for the preparation of 2H4 cells, a plasmid having SLG introduced downstream of the IL-2 promoter, a plasmid having SLR introduced downstream of the G3PDH promoter, and a plasmid having SLO introduced downstream of the INF-γ promoter were prepared as internal standards. These plasmids contained a resistance gene for hygromycin B, puromycin, and neomycin downstream of SLG, SLR, and SLO, respectively. The conditions for drug selection after transfection of the host Jurkat cells were as follows: in the primary selection, the cells were cultured for 1 week in the presence of a drug. In the secondary selection culture, the cells that survived in the primary selection culture were seeded in a 96-well plate at 1 cell/well or 200 cells/well, and cultured for 2 weeks under the same drug conditions. After the secondary selection culture, the cells were subjected to clone selection from the two points of signal intensity and signal induction by drug treatment. The G3PDH promoter SLR was first introduced to establish monochromatic stable cell line Jurkat: G3PDH-SLR #14D1 cells. These cells were used as the parent cell line to introduce the INF-γ promoter SLO, thereby establishing bichromatic stable cell line Jurkat: INFγ-SLO/G3PDH-SLR #2B12 cells. Subsequently, the obtained cells were used as a parent cell line to introduce the IL-2 promoter SLG, thereby establishing trichromatic stable cell line Jurkat IL-2-SLG/INFγ-SLO/G3PDH-SLR #2H4 cells.
The chemical substances listed in Table 1 were evaluated using 2H4 cells. 2H4 cells were seeded in a 96-well plate at 1×10^4/well and treated with each chemical substance for 1 hour, followed by incubating the cells with 25 nM PMA and 1 μM ionomycin for 24 hours. After 24 hours from the treatment with PMA and ionomycin, Tripluck Assay Reagent (manufactured by Toyobo Co., Ltd.) was added, and the amount of luminescence was measured with a Phelios microplate luminometer (manufactured by Atto Corporation). For control, 2H4 cells untreated with a chemical substance were also examined in the same manner. The amount of luminescence of SLG luciferase activity (IL2LA), SLR luciferase activity (GAPLA), and SLO luciferase activity (IFNLA) was measured, and IL-2LA and IFNLA were each normalized by GAPLA and determined to be nIL2LA and nIFNLA, respectively. Thereafter, for the concentration of each chemical substance, “% suppression” and “Inh-GAPLA” were determined according to the following formulas (1) and (2), and the chemical substances were evaluated by using their minimum value (Min % suppression, Min Inh-GAPLA).
In the evaluation, for control, PMA/ionomycin-treated 2H4 cells and PMA/ionomycin-untreated 2H4 cells were also measured for nIL2LA.
(§2) % suppression={(nIL2LA in 2H4 cells untreated with a chemical substance)−(nIL2LA in 2H4 cells treated with a chemical substance)}×100/(nIL2LA in 2H4 cells untreated with a chemical substance) ---(1) Inh-GAPLA=(GAPLA in 2H4 cells treated with a chemical substance)/(GAPLA in 2H4 cells untreated with a chemical substance) ---(2)

2H4 cells [2] = test: Evaluation of combination of IL-2 Luc LTT and IL-2 Luc assay; set-up: key: Positive (Pos): If the result is either LCT in the IL-2 Luc LTT or S in the IL-2 Luc assay, or both, the chemical substance is determined to be an immunosuppressive substance.; Negative (Neg): In the case other than the above, the chemical substance is determined to be a non-immunosuppressive substance; settings: LCT in IL-2 Luc LTT or S in IL-2 Luc assay = Pos
Procedure: Positive (Pos): If the result is either LCT in the IL-2 Luc LTT or S in the IL-2 Luc assay, or both, the chemical substance is determined to be an immunosuppressive substance. Negative (Neg): In the case other than the above, the chemical substance is determined to be a non-immunosuppressive substance.

2H4 cells [3] = test: IL-2 Luc assay: evaluation of chemical substance in 2H4 cells; settings: for IL-2 Luc Assay: 1 h chemical, then PMA/ionomycin, luminescence after six hours, class from Min % suppression of nIL2LA
Procedure: as §1, §2
The chemical substances listed in Table 1 were evaluated using 2H4 cells. 2H4 cells were seeded in a 96-well plate at 2×10^5 cells/50 μl/well and treated with each chemical substance for 1 hour, followed by incubating the cells with 25 nM PMA and 1 µM ionomycin […]. After six hours from the treatment with PMA and ionomycin, Tripluc: Assay Reagent (manufactured by Toyobo Co., Ltd.) was added, and the amount of luminescence was measured with a Phelios microplate luminometer (manufactured by Atto Corporation). For control, 2H4 cells untreated with a chemical substance were also examined in the same manner. The amount of luminescence of SLG luciferase activity (IL2LA), SLR luciferase activity (GAPLA), and SLO luciferase activity (IFNLA) was measured, and IL-2LA and IFNLA were each normalized by GAPLA and determined to be nIL2LA and nIFNLA, respectively. Thereafter, for the concentration of each chemical substance, the value of suppression was calculated according to formula (1) above, and the chemical substances were evaluated by using their minimum value (Min suppression).

Compound	determination in IL-2 Luc LTT (in words) (2H4 cells [1])	IL-2 Luc LTT (2H4 cells [1])	Evaluation of Combination (2H4 cells [2])	determination by the IL-2 Luc assay alone (in words) (2H4 cells [3])	IL-2 Luc Assay (2H4 cells [3])
NC(=O)c1ncn([C@@H]2O[C@H](CO)[C@@H](O)[C@H]2O)c1O [Mizoribine (MZR), Mizoribine]	inhibit cell growth and/or metabolic activity	LCT (Min % suppression ≤−35 and Min Inh-GAPLA <0.7: Leukocyte toxic (denoted as “LCT”; determined to have cell growth inhibition action and/or metabolic activity inhibition action))	Pos	determined to not have imnunosuppressive action	N (−35<Min % suppression <35: No Effect (denoted as “N”; determined to not affect immunity))
O=NN(CCCl)C(=O)NCCCl [Carmustine]	–	NLCT	Pos	–	S (Min %; suppression ≥35: Suppression (denoted as “S”; determined to have immunosuppressive action))
Bleomycin sulfate	–	LCT (Min % suppression ≤−35 and Min Inh-GAPLA <0.7: Leukocyte toxic (denoted as “LCT”; determined to have cell growth inhibition action and/or metabolic activity inhibition action))	Pos	–	N (−35<Min % suppression <35: No Effect (denoted as “N”; determined to not affect immunity))
Cc1oncc1C(=O)Nc1ccc(C(F)(F)F)cc1 [Leflunomide]	–	NLCT	Pos	–	S (Min %; suppression ≥35: Suppression (denoted as “S”; determined to have immunosuppressive action))
CC[C@H](C)C(=O)O[C@H]1C[C@H](O)C=C2C=C[C@H](C)[C@H](CC[C@@H](O)C[C@@H](O)CC(=O)O)[C@H]21 [Pravastatin]	–	I (−35<Min % suppression <35 and 0.7≤Min Inh-GAPLA: Inconclusive (denoted as “I”; possibly not measurable due to low water solubility))	Neg	–	N (−35<Min % suppression <35: No Effect (denoted as “N”; determined to not affect immunity))
Nc1nc(F)nc2c1ncn2[C@@H]1O[C@H](CO)[C@@H](O)[C@@H]1O [Fludarabine]	–	LCT (Min % suppression ≤−35 and Min Inh-GAPLA <0.7: Leukocyte toxic (denoted as “LCT”; determined to have cell growth inhibition action and/or metabolic activity inhibition action))	Pos	–	A (Min suppression ≤−35: Augmentation (denoted as “A”; determined to have immunoaugmenting action))
CC(=O)Nc1ccc(O)cc1 [Acetaminophen (AA), Acetaminophen]	–	–	Pos	–	A (Min suppression ≤−35: Augmentation (denoted as “A”; determined to have immunoaugmenting action))
Nc1ccn([C@@H]2O[C@H](CO)[C@@H](O)[C@@H]2O)c(=O)n1 [Cytarabine]	–	LCT (Min % suppression ≤−35 and Min Inh-GAPLA <0.7: Leukocyte toxic (denoted as “LCT”; determined to have cell growth inhibition action and/or metabolic activity inhibition action))	Pos	–	N (−35<Min % suppression <35: No Effect (denoted as “N”; determined to not affect immunity))
CC(=O)CC(c1ccccc1)c1c(O)c2ccccc2oc1=O (stereo not shown) [Warfarin]	–	NLCT	Neg	–	N (−35<Min % suppression <35: No Effect (denoted as “N”; determined to not affect immunity))
O=C(O)c1cc(/N=N/c2ccc(S(=O)(=O)Nc3ccccn3)cc2)ccc1O [Sulfasalazine (SASP), Sulfasalazine]	–	–	Pos	–	S (Min %; suppression ≥35: Suppression (denoted as “S”; determined to have immunosuppressive action))
OC[C@@H](O)[C@@H](O)[C@H](O)[C@H](O)CO [Mannitol]	–	I (−35<Min % suppression <35 and 0.7≤Min Inh-GAPLA: Inconclusive (denoted as “I”; possibly not measurable due to low water solubility))	Neg	–	N (−35<Min % suppression <35: No Effect (denoted as “N”; determined to not affect immunity))
NNC(=O)c1ccncc1 [Isoniazid]	–	I (−35<Min % suppression <35 and 0.7≤Min Inh-GAPLA: Inconclusive (denoted as “I”; possibly not measurable due to low water solubility))	Neg	–	N (−35<Min % suppression <35: No Effect (denoted as “N”; determined to not affect immunity))
O=c1[nH]cc(F)c(=O)[nH]1 [5-Fluorouracil]	–	LCT (Min % suppression ≤−35 and Min Inh-GAPLA <0.7: Leukocyte toxic (denoted as “LCT”; determined to have cell growth inhibition action and/or metabolic activity inhibition action))	Pos	–	N (−35<Min % suppression <35: No Effect (denoted as “N”; determined to not affect immunity))
S=c1nc[nH]c2nc[nH]c12 [6-Mercaptoprine]	–	NLCT	Neg	–	N (−35<Min % suppression <35: No Effect (denoted as “N”; determined to not affect immunity))
NS(=O)(=O)c1cc2c(cc1Cl)N=CNS2(=O)=O [Chlorothiazide]	–	NLCT	Neg	–	N (−35<Min % suppression <35: No Effect (denoted as “N”; determined to not affect immunity))
COc1cc([C@@H]2c3cc4c(cc3[C@@H](O[C@@H]3O[C@@H]5CO[C@@H](c6cccs6)O[C@H]5[C@H](O)[C@H]3O)[C@H]3COC(=O)[C@H]23)OCO4)cc(OC)c1O [Teniposide]	–	LCT (Min % suppression ≤−35 and Min Inh-GAPLA <0.7: Leukocyte toxic (denoted as “LCT”; determined to have cell growth inhibition action and/or metabolic activity inhibition action))	Pos	–	N (−35<Min % suppression <35: No Effect (denoted as “N”; determined to not affect immunity))
COc1cc([C@@H]2c3cc4c(cc3[C@@H](O[C@@H]3O[C@@H]5CO[C@@H](C)O[C@H]5[C@H](O)[C@H]3O)[C@H]3COC(=O)[C@H]23)OCO4)cc(OC)c1O [Etoposide]	–	–	Pos	–	N (−35<Min % suppression <35: No Effect (denoted as “N”; determined to not affect immunity))
COc1ccc2c(c1)c(CC(=O)O)c(C)n2C(=O)c1ccc(Cl)cc1 [Indomethacin]	–	–	Pos	–	S (Min %; suppression ≥35: Suppression (denoted as “S”; determined to have immunosuppressive action))
